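Test compounds were applied to cells in 96-well plates for 48 hours at 5 doses. GI50 marks 50% less growth.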 The source made the active and inactive calls. Cut-off read from the data, not from the text of the source: active = GI50 up to about 1.1 µM and inactive = higher.
How the values were obtained:
Assay in all cases: NCI tumour cell line growth inhibition, 48 h
KM12 = test system: KM12
SW-620 = test system: SW-620
786-0 = test system: 786-0
UO-31 = test system: UO-31
ACHN = test system: ACHN
DMS-273 = test system: DMS-273
NCI-H522 = test system: NCI-H522
UACC-62 = test system: UACC-62
LXFL 529 = test system: LXFL 529
KM-20L2 = test system: KM-20L2
SN12C = test system: SN12C
SK-MEL-5 = test system: SK-MEL-5
Malme-3M = test system: Malme-3M
SF-295 = test system: SF-295
NCI-H23 = test system: NCI-H23
SK-MEL-2 = test system: SK-MEL-2
K562 = test system: K562
CAKI-1 = test system: CAKI-1
SNB-19 = test system: SNB-19
DLD-1 = test system: DLD-1
LOX IMVI = test system: LOX IMVI
SNB-78 = test system: SNB-78
OVCAR-8 = test system: OVCAR-8
SNB-75 = test system: SNB-75
HL-60 = test system: HL-60
OVCAR-3 = test system: OVCAR-3
M19-MEL = test system: M19-MEL
UACC-257 = test system: UACC-257
M14 = test system: M14
RPMI-8226 = test system: RPMI-8226
RXF 631 = test system: RXF 631
XF498 = test system: XF498
DMS-114 = test system: DMS-114
HT-29 = test system: HT-29
RXF 393 = test system: RXF 393
SF-268 = test system: SF-268
HCC 2998 = test system: HCC 2998
OVCAR-4 = test system: OVCAR-4
SR = test system: SR
HOP-62 = test system: HOP-62
COLO 205 = test system: COLO 205
A549 = test system: A549
EKVX = test system: EKVX
HCT-15 = test system: HCT-15
SK-MEL-28 = test system: SK-MEL-28
TK-10 = test system: TK-10
U-251 = test system: U-251
CCRF-CEM = test system: CCRF-CEM
SF-539 = test system: SF-539
IGROV-1 = test system: IGROV-1
NCI-H460 = test system: NCI-H460
HCT-116 = test system: HCT-116
OVCAR-5 = test system: OVCAR-5
NCI-H226 = test system: NCI-H226
SK-OV-3 = test system: SK-OV-3
HOP-92 = test system: HOP-92
Hs-578T = test system: Hs-578T
DU-145 = test system: DU-145
MCF7 = test system: MCF7
PC-3 = test system: PC-3
MDA-MB-231 = test system: MDA-MB-231
BT-549 = test system: BT-549
MDA-N = test system: MDA-N
HOP-18 = test system: HOP-18
T47D = test system: T47D
A498 = test system: A498
MOLT-4 = test system: MOLT-4

For CC1CN(c2ccc(Cl)cc2)CC(C)(C)OC(=O)O1 (configuration not stated), the GI50 (KM12) was > 100 µM (inactive), the GI50 (SW-620) was > 100 µM (inactive) and the GI50 (786-0) was > 100 µM (inactive). The GI50 (UO-31) was > 100 µM (inactive), the GI50 (ACHN) was > 100 µM (inactive) and the GI50 (DMS-273) was > 100 µM (inactive). For the same molecule, the GI50 (NCI-H522) was > 100 µM (inactive), the GI50 (UACC-62) was > 100 µM (inactive) and the GI50 (LXFL 529) was > 100 µM (inactive). For the same molecule, the GI50 (KM-20L2) was > 100 µM (inactive), the GI50 (SN12C) was > 100 µM (inactive) and the GI50 (SK-MEL-5) was > 100 µM (inactive). The GI50 (Malme-3M) was > 100 µM (inactive), the GI50 (SF-295) was > 100 µM (inactive) and the GI50 (NCI-H23) was > 100 µM (inactive). The GI50 (SK-MEL-2) was > 100 µM (inactive), the GI50 (K562) was > 100 µM (inactive) and the GI50 (CAKI-1) was > 100 µM (inactive). For the same molecule, the GI50 (SNB-19) was > 100 µM (inactive), the GI50 (DLD-1) was > 100 µM (inactive) and the GI50 (LOX IMVI) was > 100 µM (inactive). For the same molecule, the GI50 (SNB-78) was > 100 µM (inactive), the GI50 (OVCAR-8) was > 100 µM (inactive) and the GI50 (SNB-75) was > 100 µM (inactive). For the same molecule, the GI50 (HL-60) was > 100 µM (inactive), the GI50 (OVCAR-3) was > 100 µM (inactive) and the GI50 (M19-MEL) was > 100 µM (inactive). For the same molecule, the GI50 (UACC-257) was > 100 µM (inactive), the GI50 (M14) was > 100 µM (inactive) and the GI50 (RPMI-8226) was > 100 µM (inactive). For the same molecule, the GI50 (RXF 631) was > 100 µM (inactive), the GI50 (XF498) was > 100 µM (inactive) and the GI50 (DMS-114) was > 100 µM (inactive). The GI50 (HT-29) was > 100 µM (inactive), the GI50 (RXF 393) was > 100 µM (inactive) and the GI50 (SF-268) was > 100 µM (inactive). The GI50 (HCC 2998) was > 100 µM (inactive), the GI50 (OVCAR-4) was > 100 µM (inactive) and the GI50 (SR) was > 100 µM (inactive). The GI50 (HOP-62) was > 100 µM (inactive), the GI50 (COLO 205) was > 100 µM (inactive) and the GI50 (A549) was > 100 µM (inactive). For the same molecule, the GI50 (EKVX) was > 100 µM (inactive), the GI50 (HCT-15) was > 100 µM and the GI50 (SK-MEL-28) was > 100 µM (inactive). For the same molecule, the GI50 (TK-10) was > 100 µM (inactive), the GI50 (U-251) was > 100 µM (inactive) and the GI50 (CCRF-CEM) was > 100 µM (inactive). For the same molecule, the GI50 (SF-539) was > 100 µM (inactive), the GI50 (IGROV-1) was > 100 µM (inactive) and the GI50 (NCI-H460) was > 100 µM (inactive). For the same molecule, the GI50 (HCT-116) was > 100 µM (inactive), the GI50 (OVCAR-5) was > 100 µM (inactive) and the GI50 (NCI-H226) was > 100 µM (inactive). The GI50 (SK-OV-3) was > 100 µM (inactive) and the GI50 (HOP-92) was > 100 µM (inactive).

With N=S(c1ccccc1[N+](=O)[O-])c1ccccc1[N+](=O)[O-] the GI50 (Hs-578T) was 4.68 µM (inactive), the GI50 (DU-145) was 2.64 µM (inactive) and the GI50 (KM12) was 3.34 µM (inactive). The GI50 (MCF7) was 0.129 µM (active), the GI50 (PC-3) was 1.46 µM (inactive) and the GI50 (786-0) was 1.38 µM (inactive). For the same molecule, the GI50 (UO-31) was 1.87 µM (inactive), the GI50 (ACHN) was 1.22 µM (inactive) and the GI50 (DMS-273) was 2.16 µM (inactive). The GI50 (NCI-H522) was 0.494 µM (active), the GI50 (UACC-62) was 3.45 µM (inactive) and the GI50 (LXFL 529) was 2.96 µM (inactive). For the same molecule, the GI50 (MDA-MB-231) was 1.77 µM (inactive), the GI50 (SN12C) was 1.11 µM (active) and the GI50 (SK-MEL-5) was 1.78 µM (inactive). For the same molecule, the GI50 (Malme-3M) was 2.72 µM (inactive), the GI50 (NCI-H23) was 3.52 µM (inactive) and the GI50 (SK-MEL-2) was 3.9 µM (inactive). For the same molecule, the GI50 (BT-549) was 1.62 µM (inactive), the GI50 (CAKI-1) was 2.07 µM (inactive) and the GI50 (SNB-19) was 9.33 µM (inactive). For the same molecule, the GI50 (LOX IMVI) was 0.76 µM (active), the GI50 (SNB-78) was 2.68 µM (inactive) and the GI50 (OVCAR-8) was 2.14 µM (inactive). The GI50 (SNB-75) was 7.94 µM (inactive), the GI50 (HL-60) was 0.933 µM (active) and the GI50 (OVCAR-3) was 0.839 µM (active). The GI50 (M19-MEL) was 3.3 µM (inactive), the GI50 (UACC-257) was 2.33 µM (inactive) and the GI50 (M14) was 2.69 µM (inactive). For the same molecule, the GI50 (RPMI-8226) was 1.14 µM (inactive), the GI50 (RXF 631) was 1.8 µM (inactive) and the GI50 (RXF 393) was 2.69 µM (inactive). For the same molecule, the GI50 (SF-268) was 4.73 µM (inactive), the GI50 (HCC 2998) was 3.4 µM (inactive) and the GI50 (OVCAR-4) was 0.914 µM (active). The GI50 (HOP-62) was 4.65 µM (inactive), the GI50 (COLO 205) was 1.3 µM (inactive) and the GI50 (MDA-N) was 1.36 µM (inactive). The GI50 (HOP-18) was 6.11 µM (inactive), the GI50 (A549) was 4.45 µM (inactive) and the GI50 (EKVX) was 5.04 µM (inactive). For the same molecule, the GI50 (HCT-15) was 0.912 µM, the GI50 (SK-MEL-28) was 4.28 µM (inactive) and the GI50 (TK-10) was 3.84 µM (inactive). The GI50 (CCRF-CEM) was 1.04 µM (active), the GI50 (SF-539) was 3.13 µM (inactive) and the GI50 (IGROV-1) was 1.98 µM (inactive). The GI50 (T47D) was 0.311 µM (active), the GI50 (HCT-116) was 1.23 µM (inactive) and the GI50 (A498) was 28 µM (inactive). For the same molecule, the GI50 (MOLT-4) was 1.8 µM (inactive), the GI50 (OVCAR-5) was 4.13 µM (inactive) and the GI50 (NCI-H226) was 4.79 µM (inactive). For the same molecule, the GI50 (SK-OV-3) was 8.63 µM (inactive) and the GI50 (HOP-92) was 1.89 µM (inactive).

Reference: ChEMBL document CHEMBL1201862, “PubChem BioAssay data set” (2004)
